Target: purified PDE1A enzyme (Homo sapiens, UniProt P54750)
Experiment: In vitro PDE1A assay, dose response (Biomol Cyclic Nucleotide Phosphodiesterase Assay Kit, colorimetric)
Format: biochemical
Settings: 100 μM cAMP, 45 min at 37° C., 8 points from 20 μM, duplicate
Description: For the dose response and further screening, we used the Cyclic Nucleotide Phosphodiesterase Assay Kit from Biomol, a colorimetric, non-radioactive assay. The basis for the assay is the cleavage of cAMP by PDE1A. The 5′AMP is further cleaved into the nucleoside and phosphate by the enzyme 5′-nucleotidase (catnr KI-307). The phosphate released due to enzymatic cleavage is quantified using BIOMOL GREEN™ reagent (catnr AK-111) in a modified Malachite Green assay 1,2. A PDE1A inhibitor will result in a decrease of the signal.
For the enzymatic reaction a mix of 25 μL with purified PDE1A enzyme, 100 μM cAMP, 5′Nucleotidase and the compound is made in a clear 384-plate. The reaction buffer is Tris 20 mM pH 7.4, 4 μg/ml calmodulin, 3 mM MgCl2, 1.5 mM CaCl2, 0.2 mg/mL BSA and 0.001% Brij-35. After an incubation of 45 minutes at 37° C., the reaction is stopped by the addition of 50 μL BIOMOL GREEN™ reagent. After 30 minutes incubation at room temperature, the readout is performed on the Envision (absorption at 615 nm).
All compounds are tested in duplicate starting from 20 μM followed by a ⅓ serial dilution, 8 points (20 μM-6.67 μM-2.22 μM-740 nM-247 nM-82 nM-27 nM-9 nM) in a final concentration of 1% DMSO. As the positive dose response control compound Vardenafil is used. For the calculation of z′ and PIN values 10 μM Vardenafil is used as positive control (100% inhibition) and 1% DMSO as negative control (0% inhibition).
The following compounds have been or can be prepared according to the synthetic methods described above. For the purpose of Table 2 below, activity of each compound, which can be determined using the PDE1A assay method described in above, is expressed as follows: […]

| SMILES | IC50 [nM] |
| --- | --- |
| CCCc1nn(C)c2c(=O)[nH]c(N(C)Cc3cc4cccnc4s3)nc12 [Example 36, 1-methyl-5-(methyl(thieno[2,3-b]pyridin-2-ylmethyl)amino)-3-propyl-1H-pyrazolo[4,3-d]pyrimidin-7(6H)-one] | 101 to 500 |
| CCCc1nn(C)c2c(=O)[nH]c(N(C)Cc3ccc(C(F)(F)F)cc3)nc12 [Example 16, 1-methyl-5-(methyl(4-(trifluoromethyl)benzyl)amino)-3-propyl-1H-pyrazolo[4,3-d]pyrimidin-7(6H)-one] | 101 to 500 |
| CCCc1nn(C)c2c(=O)[nH]c(NCc3ccnc(N4CCOCC4)c3)nc12 [Example 54, 1-methyl-5-((2-morpholinopyridin-4-yl)methylamino)-3-propyl-1H-pyrazolo[4,3-d]pyrimidin-7(6H)-one] | 101 to 500 |
| CCCc1nn(C)c2c(=O)[nH]c(NCc3cccc(-n4cccc4)c3)nc12 [Example 64] | 101 to 500 |
| CCCc1nn(C)c2c(=O)[nH]c(NCc3cccc(OCCN4CCOCC4)c3)nc12 [Example 55, 1-methyl-5-(3-(2-morpholinoethoxy)benzylamino)-3-propyl-1H-pyrazolo[4,3-d]pyrimidin-7(6H)-one] | 101 to 500 |
| CC1CCCCN1c1nc2c(C3CCCC3)nn(C)c2c(=O)[nH]1 (stereo not shown) [Example 84, 3-cyclopentyl-1-methyl-5-(2-methylpiperidin-1-yl)-1H-pyrazolo[4,3-d]pyrimidin-7(6H)-one] | > 500 |
| CCCc1nn(C)c2c(=O)[nH]c(N(C)Cc3cccc(Cl)c3)nc12 [Example 15, 5-((3-chlorobenzyl)(methyl)amino)-1-methyl-3-propyl-1H-pyrazolo[4,3-d]pyrimidin-7(6H)-one] | 101 to 500 |
| CCCc1nn(C)c2c(=O)[nH]c(N3CCc4ccccc4C3)nc12 [Example 8, 5-(3,4-dihydroisoquinolin-2(1H)-yl)-1-methyl-3-propyl-1H-pyrazolo[4,3-d]pyrimidin-7(6H)-one] | 101 to 500 |
| CCCc1nn(C)c2c(=O)[nH]c(NCCc3ccc(Cl)cc3)nc12 [Example 79, 5-(4-chlorophenethylamino)-1-methyl-3-propyl-1H-pyrazolo[4,3-d]pyrimidin-7(6H)-one] | 101 to 500 |
| CCCc1nn(C)c2c(=O)[nH]c(N(C)Cc3cccc(OCCN4CCOCC4)c3)nc12 [Example 48, 1-methyl-5-(methyl(3-(2-morpholinoethoxy)benzyl)amino)-3-propyl-1H-pyrazolo[4,3-d]pyrimidin-7(6H)-one] | > 500 |
| CCCc1nn(C)c2c(=O)[nH]c(N(C)CCc3ccc(OC)c(OC)c3)nc12 [Example 20, 5-((3,4-dimethoxyphenethyl)(methyl)amino)-1-methyl-3-propyl-1H-pyrazolo[4,3-d]pyrimidin-7(6H)-one] | > 500 |
| CCCc1nn(C)c2c(=O)[nH]c(NCc3cccc(-c4ccn(C)n4)c3)nc12 [Example 67] | < 100 |
| CCCc1nn(C)c2c(=O)[nH]c(NCc3cccc(N4CCCCC4)c3)nc12 [Example 11, 1-methyl-5-(3-(piperidin-1-yl)benzylamino)-3-propyl-1H-pyrazolo[4,3-d]pyrimidin-7(6H)-one] | 101 to 500 |
| CCCc1nn(C)c2c(=O)[nH]c(N(C)Cc3cc(-c4ccccc4)on3)nc12 [Example 25, 1-methyl-5-(methyl((5-phenylisoxazol-3-yl)methyl)amino)-3-propyl-1H-pyrazolo[4,3-d]pyrimidin-7(6H)-one] | < 100 |
| CCCc1nn(C)c2c(=O)[nH]c(N(C)CC(C)CCC)nc12 (stereo not shown) [Example 123, 1-methyl-5-(methyl(2-methylpentyl)amino)-3-propyl-1H-pyrazolo[4,3-d]pyrimidin-7(6H)-one] | 101 to 500 |
| CCCc1nn(C)c2c(=O)[nH]c(NCc3cccc(CN4CCOCC4)c3)nc12 [Example 53, 1-methyl-5-(3-(morpholinomethyl)benzylamino)-3-propyl-1H-pyrazolo[4,3-d]pyrimidin-7(6H)-one] | > 500 |
| CCCc1nn(C)c2c(=O)[nH]c(NCc3ccc(N4CCN(C)CC4)cc3)nc12 [Example 6, 1-methyl-5-(4-(4-methylpiperazin-1-yl)benzylamino)-3-propyl-1H-pyrazolo[4,3-d]pyrimidin-7(6H)-one] | > 500 |
| CCCc1nn(C)c2c(=O)[nH]c(N3CCc4cc(OC)c(OC)cc4C3C)nc12 (stereo not shown) [Example 37, 5-(6,7-dimethoxy-1-methyl-3,4-dihydroisoquinolin-2(1H)-yl)-1-methyl-3-propyl-1H-pyrazolo[4,3-d]pyrimidin-7(6H)-one] | 101 to 500 |
| CCCc1nn(C)c2c(=O)[nH]c(N(C)Cc3sc(-c4ccccc4)nc3C)nc12 [Example 47, 1-methyl-5-(methyl((4-methyl-2-phenylthiazol-5-yl)methyl)amino)-3-propyl-1H-pyrazolo[4,3-d]pyrimidin-7(6H)-one] | < 100 |
| CCCc1nn(C)c2c(=O)[nH]c(N(C)Cc3cc(-c4ccccc4)nn3C)nc12 [Example 38, 1-methyl-5-(methyl((1-methyl-3-phenyl-1H-pyrazol-5-yl)methyl)amino)-3-propyl-1H-pyrazolo[4,3-d]pyrimidin-7(6H)-one] | < 100 |

Results, then the molecule that gave them:

| IC50 [nM] | SMILES |
| --- | --- |
| < 100 | CCCC(C)CN(C)c1nc2c(C(C)(C)C)nn(C)c2c(=O)[nH]1 (stereo not shown) [Example 115, 3-tert-butyl-1-methyl-5-(methyl(2-methylpentyl)amino)-1H-pyrazolo[4,3-d]pyrimidin-7(6H)-one] |
| < 100 | CCCc1nn(C)c2c(=O)[nH]c(N(Cc3cccc(N4CCN(C)CC4)c3)CC(C)C)nc12 [Example 102, 5-(isobutyl(3-(4-methylpiperazin-1-yl)benzyl)amino)-1-methyl-3-propyl-1H-pyrazolo[4,3-d]pyrimidin-7(6H)-one] |
| < 100 | CCCC(C)CN(Cc1cccc(-n2cccn2)c1)c1nc2c(C(C)(C)C)nn(C)c2c(=O)[nH]1 (stereo not shown) [Example 122] |
| < 100 | CCCc1nn(C)c2c(=O)[nH]c(N(Cc3cccc(-n4cccn4)c3)CC(CC)CC)nc12 [Example 107] |
| < 100 | CC(C)CN(Cc1cccc(-n2cccn2)c1)c1nc2c(C(C)(C)C)nn(C)c2c(=O)[nH]1 [Example 93] |
| < 100 | CCCc1nn(C)c2c(=O)[nH]c(N(CCC)CCC)nc12 [Example 4, 5-(dipropylamino)-1-methyl-3-propyl-1H-pyrazolo[4,3-d]pyrimidin-7(6H)-one] |
| < 100 | CCCc1nn(C)c2c(=O)[nH]c(N(Cc3cccc(-n4cccn4)c3)CC(C)(C)C)nc12 [Example 119] |
| < 100 | CN(Cc1ccc(Cl)c(Cl)c1)c1nc2c(C3CCCC3)nn(C)c2c(=O)[nH]1 [Example 77, 3-cyclopentyl-5-((3,4-dichlorobenzyl)(methyl)amino)-1-methyl-1H-pyrazolo[4,3-d]pyrimidin-7(6H)-one] |
| < 100 | CN(CCC(C)(C)C)c1nc2c(C(C)(C)C)nn(C)c2c(=O)[nH]1 [Example 111, 3-tert-butyl-5-((3,3-dimethylbutyl)(methyl)amino)-1-methyl-1H-pyrazolo[4,3-d]pyrimidin-7(6H)-one] |
| < 100 | CCCc1nn(C)c2c(=O)[nH]c(N(Cc3cccc(N4CCOCC4)c3)CC(C)C)nc12 [Example 74, 5-(isobutyl(3-morpholinobenzyl)amino)-1-methyl-3-propyl-1H-pyrazolo[4,3-d]pyrimidin-7(6H)-one] |
| < 100 | CCCc1nn(C)c2c(=O)[nH]c(N(Cc3cccc(N4CCOCC4)c3)CC(C)CCC)nc12 (stereo not shown) [Example 113, 1-methyl-5-((2-methylpentyl)(3-morpholinobenzyl)amino)-3-propyl-1H-pyrazolo[4,3-d]pyrimidin-7(6H)-one] |

Reference: patent US20080242661A1, “Novel compounds useful for the treatment of degenerative & inflammatory diseases” (priority 2006, published 2008)
